Measured values: US20180055370A1, “PHOTOACOUSTIC APPARATUS” (CANON KABUSHIKI KAISHA, priority 2015, published 2018)

Assay: Change over time of contrast agent concentration in circulating blood (blood sampling after administration)
Assay type: in vivo, nude mice
Conditions: threshold value of linearity R^2≧0.8
Excerpt: FIG. 2 is a graph illustrating contrast agent concentration change information obtained from a plurality of blood samplings of nude mice to which a contrast agent has been administered. The vertical axis represents the concentration of coloring material in blood, and the horizontal axis denotes the time elapsed since administration. The graph depicts specifically the change of the concentration after administration of contrast agent in an amount of 20 nanomoles of coloring material equivalent, to the caudal vein of the nude mice. […]
In a case where the contrast agent is administered into the circulating blood as one shot, the contrast agent concentration in the circulating blood decreases exponentially due to clearance with the passage of time, as illustrated in FIG. 2. […] When no signal is acquired within an appropriate lapse of time, therefore, the contrast agent in the circulating blood may in some instances fail to be quantified successfully. […] On the other hand, once a prolonged period of time has elapsed since administration, the contrast agent concentration in the circulating blood decreases, and becomes readily influenced by the sensitivity and/or measurement variability of the measuring instrument. […]

TIME [hr] (measurement time range over which concentration in blood decreases linearly on a semi-logarithmic axis): 0.08~0.5 hr
Compound: CC1(C)C(/C=C/C=C/C=C/C=C2\N(CCCCS(=O)(=O)O)c3ccc4ccccc4c3C2(C)C)=[N+](CCCCS(=O)(=O)[O-])c2ccc3ccccc3c21 [ICG, indocyanine green]
